{
  "source": "paper PMC10779433",
  "about": "“Bidirectional Allosteric Coupling between PIP2 Binding and the Pore of the Oncochannel TRPV6” (International Journal of Molecular Sciences, 2024)",
  "key": {"[1]": {"system": "TRPV6 W583F", "experiment": "NFAT screen, TRPV6 W583F", "type": "cell-based, human", "details": "HEK293 cells; 5 μM cis-22a, 2 h, vs DMSO", "description": "(§1) N-terminally TagRFP-labeled human TRPV6 (725 aa) was kindly provided by R. Bhardwaj and M. Hediger (University of Bern, Bern, Switzerland). This variant is translated from the first ATG codon and thus deviates from the non-ATG-initiated protein which is expressed in vivo (accession number NM_018646.6) by lacking 40 amino acids of the very N-terminus. For N-terminal labeling with EYFP, TRPV6 was cloned into pEYFP-C1 (Clontech) via EcoRI and SacII restriction sites. […]\n(§2) After incubation, cover slips were carefully rinsed with phenol red-free DMEM supplemented with the compound and dosage corresponding to the previous incubation, which was then also present during imaging. […] Subcellular NFAT localization of TRPV6 expressing cells was again monitored on an Axiovert 135 inverted microscope (Zeiss, Oberkochen, Germany), as described in more detail before. […] Images were analyzed using Matlab2018a, differentiating between three cell populations based on the ratio of CFP emission intensity originating from the nucleus and the cytosol, similar to Schober et al. (2019)."}, "[2]": {"system": "TRPV6 R470A W583F", "parameters": "method as in PMID 33246965", "details": "ref [47], cited from earlier work"}, "[3]": {"system": "TRPV6 R492A", "experiment": "NFAT screen, TRPV6 R492A", "type": "cell-based, human", "details": "HEK293 cells; 5 μM cis-22a, 2 h; nuclear NFAT already reduced without cis-22a", "description": "as §1, §2"}, "[4]": {"system": "TRPV6 D580K", "parameters": "method as in PMID 33246965", "details": "HEK293 cells; 0.1 μM and 10 μM cis-22a; Figure 5B; ref [47]; cited from earlier work"}, "[5]": {"system": "TRPV6 F468A", "experiment": "NFAT screen, TRPV6 F468A", "type": "cell-based, human", "details": "HEK293 cells; 5 μM cis-22a, 2 h; nuclear NFAT already reduced without cis-22a", "description": "as §1, §2"}, "[6]": {"biological_target": "T1, TRPV6 WT (Homo sapiens, UniProt Q9H1D0)", "T1 construct": "expressed in transfected cells; host or cells: HEK293 cells, transient transfection", "T1 sequence (Q9H1D0 41-765 limits assumed)": "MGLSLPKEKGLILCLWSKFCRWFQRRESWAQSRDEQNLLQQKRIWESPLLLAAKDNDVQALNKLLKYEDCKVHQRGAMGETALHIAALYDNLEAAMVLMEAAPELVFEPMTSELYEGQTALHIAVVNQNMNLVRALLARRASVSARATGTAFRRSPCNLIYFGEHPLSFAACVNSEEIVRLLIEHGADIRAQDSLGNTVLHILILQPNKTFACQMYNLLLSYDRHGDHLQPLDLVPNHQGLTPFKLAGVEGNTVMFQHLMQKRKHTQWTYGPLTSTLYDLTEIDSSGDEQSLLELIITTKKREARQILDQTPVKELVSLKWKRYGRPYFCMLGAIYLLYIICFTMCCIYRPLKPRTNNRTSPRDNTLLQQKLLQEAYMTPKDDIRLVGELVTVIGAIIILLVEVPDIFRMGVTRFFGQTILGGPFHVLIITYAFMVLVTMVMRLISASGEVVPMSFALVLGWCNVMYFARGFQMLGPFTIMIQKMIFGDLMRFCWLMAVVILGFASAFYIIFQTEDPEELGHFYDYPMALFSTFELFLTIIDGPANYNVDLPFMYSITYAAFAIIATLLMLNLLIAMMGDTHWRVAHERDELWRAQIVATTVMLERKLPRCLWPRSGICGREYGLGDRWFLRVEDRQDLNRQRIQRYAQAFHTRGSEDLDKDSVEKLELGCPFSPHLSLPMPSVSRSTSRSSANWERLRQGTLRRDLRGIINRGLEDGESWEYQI", "experiment": "Fura-2 Ca2+ imaging, TRPV6 WT", "type": "cell-based", "details": "20 μM pal-PIP2 peptide; for inhibition at 20 µM: HEK293, read-out: mean percentage of inhibition (Fura-2 signal), HEK293 cells"}},
  "note": "Read-outs that look alike come from different tables or passages of the source. Residues, ends and D or L forms follow the SMILES beside them. *: point of attachment. Palmitoyl = CCCCCCCCCCCCCCCC(=O)*",
  "data": [
    {"molecule": "Cc1cccc(C2CCC(N3CCN(c4cccnc4)CC3)CC2)c1.O=C(O)C(F)(F)F", "note": "(stereo not drawn) [cis-22a]", "values": [
      {"measurement": "change of nuclear NFAT localization", "setting": "[1]", "result": "not significantly changed"},
      {"measurement": "inhibition by cis-22a in electrophysiological measurements", "setting": "[2]; HEK293 cells, 0.1 and 10 μM cis-22a, n=6, Figure S6B", "result": "just modest inhibition"},
      {"measurement": "resistance to cis-22a vs single mutants", "setting": "[2]; R470A W583F, especially at the high blocker concentration", "result": "considerably higher resistance"},
      {"measurement": "inhibition by cis-22a (in words)", "setting": "[2]; R470A W583F", "result": "very weak inhibition"},
      {"measurement": "reduction of nuclear NFAT localization", "setting": "[3]", "result": "further significant reduction in nucleus-targeted NFAT"},
      {"measurement": "response to cis-22a vs TRPV6 WT", "setting": "[4]", "result": "significantly reduced response"},
      {"measurement": "reduction of nuclear NFAT localization", "setting": "[5]", "result": "further significant reduction in nucleus-targeted NFAT"}
    ]},
    {"molecule": "CCCCCCCCCCCCCCCC(=O)N[C@@H](Cc1c[nH]cn1)C(=O)N[C@@H](CCCNC(=N)N)C(=O)N[C@@H](CCC(N)=O)C(=O)N[C@@H](CCCCN)C(=O)N[C@@H](Cc1c[nH]cn1)C(=O)N[C@@H](Cc1ccccc1)C(=O)N[C@@H](CCC(=O)O)C(=O)N[C@@H](CCCCN)C(=O)N[C@@H](CCCNC(=N)N)C(=O)N[C@@H](CCCNC(=N)N)C(N)=O", "note": "[pal-PIP2 peptide] (Palmitoyl-HRQKHFEKRR-NH2)", "values": [
      {"measurement": "inhibition at 20 µM", "setting": "[6]; applied after 0.5 μM cis-22a, Figure 6D, not significantly different from reverse order", "result": 9.18, "unit": "%"},
      {"measurement": "inhibition at 20 µM", "setting": "[6]; applied first (before cis-22a), Figure 6C", "result": 10.8, "unit": "%"},
      {"measurement": "decrease in cytosolic Ca2+ level", "setting": "[6]; HEK293 cells, 2 mM Ca2+, Figure 1B, significantly stronger than control peptide (p < 0.05)", "result": "approximately 11%"},
      {"measurement": "reduction of intracellular Ca2+ level", "setting": "[6]; HEK293 cells, 2 mM Ca2+, Figure 2A, comparison with G488R", "result": "about 13%"}
    ]}
  ]
}
